Experimental data published in article PMC4467156, “A new chemical inhibitor of angiogenesis and tumorigenesis that targets the VEGF signaling pathway upstream of Ras” (Oncotarget, 2015).

Key:
PKCα = PKCα (Homo sapiens, UniProt P17252); experiment: In vitro kinase assay PKCα; type: biochemical; conditions: concentrations up to 50 μM
Method: (§1) We first wondered whether COB223 required to be internalized to exert its biological effect. For this, we synthesized a covalent complex between BSA and COB223 and purified it. […] In vitro kinase assays were performed with a panel of purified protein-kinases involved in mitogenic signaling, including VEGFR2, FGFR1, FGFR2, PDGFRß, Met, Raf, MEK1, ERK1, ERK2, PKCα, PKCβI, PKCβII, PKCζ as indicated in Table 2. […] We then analyzed the effect of COB223 on VEGF-induced phosphorylations of VEGFR2, MEK and ERK1/2 (Figure 9). […] (Figure 9A, 9B). […] It was also specific of the p42/p44 MAP kinase pathway as activation of p38 MAP kinase phosphorylation in HUVEC cells by VEGF or serum was unaffected by COB223 (data not shown). The activation of src phosphorylation by VEGF in HUVECs was also unaffected by COB223 (data not shown).

PDGFRß = PDGFRß (Homo sapiens, UniProt P09619); experiment: In vitro kinase assay PDGFRß; type: biochemical; conditions: concentrations up to 50 μM
PDGFRß, sequence (P09619 33-1106, species assumed): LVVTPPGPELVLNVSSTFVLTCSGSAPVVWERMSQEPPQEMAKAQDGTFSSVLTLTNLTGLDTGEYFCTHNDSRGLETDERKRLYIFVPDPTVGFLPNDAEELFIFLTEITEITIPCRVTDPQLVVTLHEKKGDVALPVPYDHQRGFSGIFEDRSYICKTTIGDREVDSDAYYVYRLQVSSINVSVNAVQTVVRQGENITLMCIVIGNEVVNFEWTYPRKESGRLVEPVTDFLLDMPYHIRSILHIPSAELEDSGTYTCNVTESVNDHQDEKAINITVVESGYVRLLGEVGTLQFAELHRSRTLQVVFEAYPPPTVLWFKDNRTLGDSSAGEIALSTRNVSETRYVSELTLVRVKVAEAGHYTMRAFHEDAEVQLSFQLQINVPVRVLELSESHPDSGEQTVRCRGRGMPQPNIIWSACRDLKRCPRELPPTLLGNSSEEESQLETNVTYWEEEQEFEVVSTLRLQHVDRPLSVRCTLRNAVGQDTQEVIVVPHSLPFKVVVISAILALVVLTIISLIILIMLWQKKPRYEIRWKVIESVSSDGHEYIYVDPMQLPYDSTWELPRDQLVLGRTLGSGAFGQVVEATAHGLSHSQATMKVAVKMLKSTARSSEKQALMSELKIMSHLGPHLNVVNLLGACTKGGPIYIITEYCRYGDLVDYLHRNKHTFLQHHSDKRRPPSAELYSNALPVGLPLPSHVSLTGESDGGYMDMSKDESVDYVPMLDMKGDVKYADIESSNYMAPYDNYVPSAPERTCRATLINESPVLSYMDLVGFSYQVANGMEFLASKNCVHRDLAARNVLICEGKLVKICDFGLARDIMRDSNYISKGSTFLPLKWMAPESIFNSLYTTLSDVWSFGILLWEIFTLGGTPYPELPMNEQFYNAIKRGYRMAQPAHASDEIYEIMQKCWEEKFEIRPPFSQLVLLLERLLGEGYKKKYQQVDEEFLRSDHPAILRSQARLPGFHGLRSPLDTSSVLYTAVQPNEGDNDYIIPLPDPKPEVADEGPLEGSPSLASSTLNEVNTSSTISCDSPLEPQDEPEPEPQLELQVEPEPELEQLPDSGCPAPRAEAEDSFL
Method: as §1

3T3 cells [1] = experiment: Cell viability WST-1, 3T3; type: cell-based; conditions: confluent 3T3, 24 h at 37°C
Method: Once they had reached confluency, cells were kept for 24 hours in medium supplemented with 0.5% FCS (LLC/2 and 3T3 cells) or 2.5% FCS (HUVEC and HMVEC-d cells), in the presence of COB223 at different concentrations. WST-1 assay (Roche Diagnostic, Meylan, France) was then performed according to the manufacturer's instructions.

ERK1 = ERK1 (Homo sapiens, UniProt P27361); experiment: In vitro kinase assay ERK1; type: biochemical; conditions: concentrations up to 50 μM
ERK1, sequence (P27361 whole entry, species assumed): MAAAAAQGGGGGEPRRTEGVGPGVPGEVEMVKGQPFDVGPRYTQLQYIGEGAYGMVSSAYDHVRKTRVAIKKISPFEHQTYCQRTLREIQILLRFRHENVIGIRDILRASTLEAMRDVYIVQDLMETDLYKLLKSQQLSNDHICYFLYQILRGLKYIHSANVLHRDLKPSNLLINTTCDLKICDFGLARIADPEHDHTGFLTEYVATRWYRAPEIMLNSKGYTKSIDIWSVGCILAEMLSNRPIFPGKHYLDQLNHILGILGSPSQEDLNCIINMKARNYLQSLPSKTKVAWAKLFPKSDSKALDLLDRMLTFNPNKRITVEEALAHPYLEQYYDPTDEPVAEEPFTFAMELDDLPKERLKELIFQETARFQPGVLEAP
Method: as §1

ERK1/2 phosphorylation = ERK1/2 phosphorylation in 3T3 fibroblasts; type: cell-based; conditions: data not shown
[2] = system: neovascular response to FGF-2; experiment: Mouse sponge angiogenesis assay; type: in vivo; conditions: Balb/c mice, COB223 100 μM injected into sponge, day 7
Method: Disc Cellspon cellulose sponges (thickness 2 mm, diameter 10 mm, Cellomeda; Turku, Finland) were implanted under the skin of Balb-c mice under general anesthesia. Mice were divided in three groups receiving either DMSO, FGF-2, or FGF-2 and COB223 (groups of respectively 6, 7 and 8 mice). […] DMSO, FGF-2 and/or COB223 (50 μL) were injected again into the sponges through the skin on day 1 and 2. A third injection of COB223 alone was performed on day 4. On day 7, the vascularization of the sponges was imaged by non-invasive fluorescence imaging after i.p. injection of RAFT-(cRGD)4 (Angiostamp^TM, Fluoptics, Grenoble, France) as described in [9]. The mice were then anesthetized and sacrificed by cervical dislocation on day 7 and the sponges were rapidly excised and photographed. Each sponge was then homogenized in 1 mL RIPA lysis buffer and the supernatants were used for quantification. The extent of vascularization of the sponge implants was assessed by measuring the amount of hemoglobin using the Drabkin's reagent (Sigma).

HMVECd cells = experiment: Scratch wound closure assay, primary HMVECd; type: cell-based; conditions: Homo sapiens, Endothelial cell; primary dermal microvascular endothelial cells, 10% FCS
Method: Figure 3 Endothelial cell-specific inhibition of wound closure by COB223 The dose-dependent effect of COB223 on cellular wound closure was measured as described in Material and Methods on either HMVECd or on 3T3 cells. The results are expressed as the percentage of wound closure (with closure observed in the presence of 10% FCS taken as 100%) : mean values +/− SD from three experiments.
Confluent cell monolayers were wounded with a plastic pipet tip, washed gently with phosphate buffer saline (PBS) and treated with complete media containing molecules, as indicated. Cells were placed at 37°C into the incubator and photographed at indicated times. Quantitation of closure of the monolayer was performed using the NIH Image J program (http://rsbweb.nih.gov/ij/). Results are expressed as percentage of wound closure at t = 24 h as compared to the initial wound at t = 0 h.

3T3 cells [3] = experiment: 3H-thymidine incorporation, 3T3; type: cell-based; conditions: 3T3 fibroblasts
Method: Cells were treated with molecules in complete medium. After 22 h, 1 μCi per well H^3 thymidine was added for 2 hours. Cells are then fixed by 10% trichloroacetic acid and harvested with 0.2N NaOH, 1% SDS. Radioactivity was measured in a beta counter.

MEK phosphorylation = experiment: Western blot, MEK phosphorylation in HUVEC; type: cell-based, human; conditions: 10 ng/mL VEGF-A 15 min, 25 μM COB223
Method: Figure 9 Effect of COB223 on growth factor-induced VEGF-R2, MEK and ERK phosphorylations (A) Serum-starved HUVEC cells were incubated for 15 min in the presence of either 10 ng/mL VEGF-A or 20 ng/mL FGF-2 and in the absence or the presence of 25 μM COB223. The phosphorylations of VEGFR2 on tyrosine 1175 or tyrosine 1214, of MEK and ERK1/2 were then analyzed by Western blot analysis of the cell lysates as described in Material and Methods. Western blots for total VEGFR2, MEK and ERK1/2 were used as loading controls. The blots shown in Figure 9A were obtained in one representative experiment. (B) The hybridization signals observed in 5 similar but independent experiments were quantitated and the ratios between phospho-VEGFR2(Y1175) or (Y1214) and VEGFR2 signals were normalized to the value observed in the absence of COB223. (C) The hybridization signals observed in 5 similar but independent experiments were quantitated and the ratios between phospho-ERK1/2 and ERK1/2 and between phospho-MEK and MEK were normalized to the values observed in the absence of COB223. Additional experiments performed with 10% fetal calf serum (FCS) as a mitogen were included in this analysis. * : p < 0.05; ** : p < 0.01
Serum-starved HUVEC cells were incubated for 15 min in the presence of either 10 ng/mL VEGF-A or 20 ng/mL FGF-2 and in the absence or the presence of indicated concentration of COB223. […]

CN(C)c1cccc2c(S(=O)(=O)NCCCN3CCN(CCCNC(=O)OC(C)(C)C)CC3)cccc12 [COB223, tert-Butyl 3-(4-(3-(5-(dimethylamino)naphthalene-1-sulfonamido)propyl)piperazin-1-yl) propylcarbamate]
kinase inhibition (PKCα): None of them was inhibited
kinase inhibition (PDGFRß): None of them was inhibited
cytotoxic concentrations (3T3 cells [1]): > 50 µM
kinase inhibition (ERK1): None of them was inhibited
FGF2-induced or serum-induced phosphorylation of ERK1/2 (ERK1/2 phosphorylation): did not affect
neovascular response to FGF-2 (hemoglobin content and fluorescence imaging) [2]: strong inhibition
EC50 (HMVECd cells): 25 µM
effect on cell proliferation (3T3 cells [3]): no effect
VEGF-induced phosphorylation of MEK (MEK phosphorylation): significantly inhibited
